From ChEMBL document CHEMBL3112428, “Biological evaluation of diazene derivatives as anti-tubercular compounds” (Eur J Med Chem, 2014)
Active and inactive are the calls of the source. The rule behind the calls is not given here.

Columns and labels:
Assay type in all cases: functional, organism-based
[1] = system: Mycobacterium tuberculosis; experiment: Antituberculosis activity against multidrug-resistant Mycobacterium tuberculosis LAM1 assessed as growth inhibition at 1 to 5 ug/ml measured everyday by BACTEC assay
[2] = system: Mycobacterium tuberculosis; experiment: Antituberculosis activity against multidrug-resistant Mycobacterium tuberculosis LAM1 assessed as growth inhibition at <= 10 ug/ml measured everyday by BACTEC assay
[3] = system: Mycobacterium tuberculosis; experiment: Antituberculosis activity against multidrug-resistant Mycobacterium tuberculosis LAM1 assessed as growth inhibition at 0.1 ug/ml measured everyday by BACTEC assay

## O=C(/N=N/c1ccc(C(F)(F)F)cc1)Nc1ccccc1
[1]
  growth inhibition (GI): Active

## CCOC(=O)/N=N/C(=O)Nc1ccc(C)cc1
[2]
  growth inhibition (GI): inactive

## NNC(=O)c1ccncc1 [ISONIAZID]
[3]
  growth inhibition (GI): inactive
